Data reported in US10231985B2, “Compounds and compositions comprising such compounds for the prevention or treatment of dyslipidaemias” (CENTRE NATIONAL DE LA RECHERCHE SCIENTIFIQUE, priority 2013, dated 2019).

Legend:
[1] = tested on: eIF2α phosphorylation (UPR); assay: eIF2α phosphorylation by Western blot in lipointoxicated β-cells; type: cell-based, rat; conditions: BRIN-BD11, 200 μM palmitic acid
Method: Pancreatic β-cells, BRIN-BD11, were grown under control conditions or in the presence of an exogenous source of saturated fatty acid (200 μM palmitic acid), as described by Dhayal & Morgan (2011), in order to generate lipointoxication conditions, with or without the addition of OAG. A) The proportion of dead cells was estimated in the absence (control) or presence of palmitic acid, for increasing concentrations of OAG. B) eIF2α phosphorylation levels were also analyzed under the various conditions by Western blot, in the presence or absence (Ø) of OAG, and were normalized to total eIF2α.
BRIN-BD11 cells are seeded at a density of 0.5×10^5 cells/ml in T25 flasks for 24 hours. As indicated above, the complete medium is then replaced by an equivalent lacking FCS but containing the lipid reagents of interest. After 6 hours of incubation, total protein is extracted using lysis buffer (20 mM Tris, 150 mM NaCl, 1 mM EDTA and 1% (v/v) Triton-X) containing protease and phosphatase inhibitors. […] The densitometric analysis of the relative abundance of phosphorylated or non-phosphorylated forms of eIF2α protein is carried out with the Fluor-S Multilmager analysis system combined with the Quantity One software (Bio-Rad UK Ltd).

[2] = tested on: hem1Δ yeasts grown under SFA accumulation conditions; assay: Restoration of growth of lipointoxicated hem1Δ yeast; type: cell-based, Saccharomyces cerevisiae; conditions: after 3 days, increasing concentrations
Method: The strain bearing the hem1Δ mutation is grown, under aerobic conditions, with shaking and at 28° C., in liquid YPG^A medium (YPG (1% yeast extract (w/v), 1% peptone (w/v) and 2% glucose (w/v)) supplemented with 80 μg/ml 6-aminolevulinic acid (ALA)). Lipointoxication by saturated fatty acids (SFA) is caused by depletion of unsaturated fatty acids (UFA), the synthesis of which is dependent on the presence of heme (the prosthetic group of the Ole1p enzyme in particular), by transfer to YPG^+ medium (YPG supplemented with 80 μg/ml ergosterol to compensate for the sterol depletion obtained under this condition). Lipointoxication can be induced on solid YPG^+ medium+2% agar (w/v) by transferring 3500 cells (hem1Δ from preculture in YPG^A) per cm^2 or, alternatively, in liquid medium by inoculating 2×10^6 cells/ml YPG^+. Classically, the effects of SFA lipointoxication are analyzed 7 hours after the transfer to YPG^+ medium. The ability of a compound to counter the deleterious effects of SFA lipointoxication, in turn, is evaluated successively to the addition of this compound on (or in) the YPG^+ transfer medium, after seeding with the cells.
Following the induction of SFA lipointoxication (for hem1Δ grown on solid medium) 5 μl drops of solutions of the various compounds at 10 mM in dimethylsulfoxide (DMSO) or ethanol (EtOH) are deposited on the surface of the agar. The ability of a compound to counter the arrest of lipid-induced cell growth is estimated by the appearance of a halo of hem1Δ colonies at the site of the deposition of said compound after 3 days of culture at 28° C. (see Deguil et al., 2011).
Jointly with the induction of SFA lipointoxication (for hem1Δ in liquid medium), the various compounds are added to the cultures at an initial concentration of 200 μM. Proliferation is monitored by spectrometric measurement of cell density, at regular time intervals (every hour over the duration of the observation). At a wavelength of 600 nm, one optical density unit (OD600 nm) corresponds to 2×10^7 cells/ml.

lipase = assay: Resistance to hydrolytic activity of lipases (thin-layer chromatography); type: in vitro ADME; conditions: 10 U of lipase, 30 minutes, 37° C.
Method: OAG (15 μmol) and N,N-diethanololeamide were subjected (+) or not (−) to exposure to 10 U of lipase for 30 minutes at 37° C. Following the incubation, the lipid species were extracted from the samples before being separated by thin-layer chromatography.

[3] = tested on: phospholipids of the cellular membranes (hem1Δ strain); assay: Fatty acid content of cellular phospholipids (lipid extraction, ESI-MS); type: cell-based, Saccharomyces cerevisiae
Method: The hem1Δ strain is grown in liquid medium (YPG^A, YPG^+, or YPG^++200 μM compound to be tested) under aerobic conditions, with shaking and at 28° C. for 7 hours, from an initial cell concentration of 2×10^6 cells/ml. At the conclusion of the culture, 10^8 cells are collected in order to carry out a total lipid extraction. After having suspended the cells in 1 ml of distilled water at 4° C., 500 μl of glass beads (Ø 0.6 mm) are added and the whole then undergoes 3 sequences of 20 seconds at 5000 rpm in a shaker (the tubes are kept on ice between each of the 3 sequences). The cell lysate then obtained, supplemented with bead-washing solution (1 ml), is then transferred to a 40 ml glass tube (Corex™) before carrying out the lipid extraction using a 2:1 (v/v) methanol:chloroform ratio. First, 6 ml of methanol is added and the whole is vortexed for 30 seconds and then incubated for 15 minutes at 65° C. Once the mixture cools to room temperature, 3 ml of chloroform is added and then the whole is vortexed again for 30 seconds before allowing the extraction to proceed for 16 hours. Later, the sample is centrifuged for 12 minutes at 10000 g before transferring the supernatant to a new Corex™ tube. After adding 2 ml of chloroform and then 4 ml of distilled water, the whole is vortexed for 30 seconds and then centrifuged for 8 minutes at 3000 g. After removing the resulting upper phase, the lower organic phase is collected in a glass hemolysis tube. Finally, the solvent is evaporated under a stream of nitrogen at 80° C. in order to obtain the total cellular lipid samples.
The total cellular lipid samples are resuspended in 1 ml of dichloromethane while being vortexed for 30 seconds. The whole is deposited on a silica column (BOND ELUT-SI, 100 mg 1 ml) preconditioned successively with 3 ml of methanol and then 2 ml of dichloromethane. The fraction retained by the column is then washed successively with 2 ml of dichloromethane and then 3 ml of acetone. Finally, 2 ml of a 50:45:5 (v/v/v) chloroform/methanol/water mixture is deposited on the column and the phospholipids thus eluted are collected in a glass hemolysis tube. The solvent is evaporated under nitrogen at 80° C. in order to obtain the cellular phospholipid samples.
Once resuspended in 100 μl of the mixture Mix^− (2:1:1 (v/v/v) isopropanol/acetonitrile/water+1% (v/v) triethylamine) or the mixture Mix^+ (2:1:1 (v/v/v) isopropanol/acetonitrile/water+1% (v/v) formic acid), the samples are analyzed by electrospray ionization mass spectrometry (ESI-MS) in negative or positive mode, respectively, and the results obtained are used to analyze the fatty acid content of the various phospholipid species.

SMILES	eIF2α phosphorylation level normalized to total eIF2α (UPR intensity) [1]	Restoration of the growth of hem1Δ yeasts [2]	Hydrolysis by lipases (lipase)	Effect on fatty acid composition of membrane phospholipids [3]
CCCCCCCC/C=C\CCCCCCCC(=O)OC[C@H](CO)OC(C)=O [OAG, 1-oleoyl-2-acetyl-sn-glycerol]	reduces the UPR	restore the growth	unlike OAG	without restoring a normal diunsaturated phospholipid composition
CCCCCCCC/C=C\CCCCCCCC(=O)OC[C@@H](O)COP(=O)(O)O [LPA, 1-oleoyl-sn-glycerol-3-phosphate]		restore the growth		act directly on lipid content
